Assay results from US20240150396A1 (The Texas A&M University System, priority 2021, published 2024).
Values joined by “and” are separate entries in the source; they are usually repeats but may differ in a detail not shown here. Equal values may be shown once. “Also recorded” adds a separate entry of the source. Read-outs that look alike come from different tables or passages of the source.

Assays:
[1] = Host cell cytotoxicity in the T. cruzi infection model; assay type: cell-based, mouse; details: mouse
Summary of the method: (§1)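 C2C12 murine cardiomyoblasts infected with T. cruzi were incubated with compound 48 h at 37 °C, fixed in 2% PFA and stained with 5 μg/ml DAPI. Automated microscopy imaging quantified host cells and parasites separately; host cytotoxicity derived as CC50.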

[2] = Thiolation of inhibitors with glutathione, LCMS; assay type: physicochemical; details: for Rate of Thiolation, k: 1 mM glutathione, 0.5 mM compound, Tris pH 8.0, 10% DMSO, room temperature
Experimental: Samples were analyzed by HPLC-MS (as described above) by injecting 0.01 mL aliquots onto a Luna […] C18(2) 100 Å, 4.6 mm, 50 mm column (Phenomenex) using the HPLC method described in the chemistry section at 0-6 h time points. […] Integration of the chromatographic peaks of the inhibitors and their GSH adducts at each time point was used to determine the rate of GSH adduct formation.

human dermal fibroblasts = assay: Human cell toxicity, resazurin viability; assay type: cell-based
Summary of the method: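 Primary human dermal fibroblasts, 2400 cells/well, exposed in duplicate to inhibitors at final 0.001-0.1 mM in 1% DMSO (1% DMSO control) for 48 h at 37 °C. Resazurin then added and viability read by fluorescence (544/590 nm) after further 24 h.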

[3] = test system: T. cruzi (Ca-I/72) in C2C12 murine cardiomyoblasts; assay: T. cruzi-infected murine cardiomyoblasts (C2C12); assay type: cell-based, Trypanosoma cruzi; details: for EC50: read-out: EC50 T. cruzi-infected cardiomyoblasts
Summary of the method: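 C2C12 mouse cardiomyoblasts infected with T. cruzi Ca-I/72 (10^3 and 10^4 parasites) and exposed to 3-fold serial dilutions of inhibitor from a 10 μM maximum, 48 h at 37° C. After PFA fixation and DAPI staining, automated imaging quantified parasites and host cells, giving EC50 and host CC50.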

[4] = Solubility of cruzain inhibitors in 10% DMSO, light scattering; assay type: physicochemical
Experimental: Synthetic PVHIs such as 5-16 and 22-24 at final concentrations of 1-200 μM were added to 0.25 mL solutions of 10% DMSO (v/v) in clear 96-well Greiner plates, and absorbance at 620 nm was measured using a BioTek M2 Synergy plate reader at t=0 and 120 min to evaluate increased light scattering and precipitated inhibitor.

[5] = test system: C2C12 mouse cardiomyoblast cell line; assay: Host cell cytotoxicity in the T. cruzi infection model; assay type: cell-based
Summary of the method: as §1

SARS-CoV-2 3CL protease = SARS-CoV-2 3CL protease (Severe acute respiratory syndrome coronavirus 2 (2019-nCoV) (SARS-CoV-2), UniProt P0DTD1); assay: biochemical; assay type: biochemical; details: pH 7.5; for Ki: read-out: Ki* 3CLpro
[6] = test system: SARS-CoV-2 in Vero E6 cells; assay: Anti-CoV-2 activity in Vero E6 cells; assay type: cell-based
[7] = mice, intravenous administration, data not shown
[8] = test system: trypanosomes (T. b. brucei, T. cruzi); assay: Anti-trypanosomal activity, culture not stated; assay type: cell-based; details: culture (T. b. brucei PCF/BSF or T. cruzi-infected cardiomyoblasts) not stated
[9] = Detection of aldehyde content using phenylhydrazine; assay type: physicochemical; details: aqueous buffer, 1 mM phenylhydrazine, 2 hours
Experimental: Detection of Aldehyde Content Using Phenylhydrazine. In a 96-well clear microplate, compounds 52 and 36 in DMSO solutions, or pure DMSO as a control, were diluted into the above NMR buffer without addition of DTT to make 250 μL-samples, each containing 0.2 mM of compounds and 10% DMSO (v/v). Upon addition of 1M phenylhydrazine (0.25 μL), the formation of phenylhydrazone in these wells were continuously monitored for 2 hours by measuring UV absorbance at the maximal wavelength of 282 nm.

[10] = Trypanosoma cruzi, C2C12, C2C12 murine cardiomyoblasts

Row | SMILES | Rate of Thiolation, k [2] | EC50 ([3]; C2C12 murine cardiomyoblasts) | EC50 [3, 10] | apparent rate of GSH addition relative to K11777 [2] | CC50 [5] | Ki (SARS-CoV-2 3CL protease) | EC50 [6] | other results
1 | O=C(N[C@@H](Cc1ccccc1)C(=O)N[C@H](/C=C/c1ccccn1)Cc1ccccc1)OCc1ccccc1 [Compound 11, Benzyl ((S)-1-Oxo-3-phenyl-1-(((S,E)-1-phenyl-4-(pyridin-2-yl)-but-3-en-2-yl)amino)propan-2-yl)carbamate] | Negligible | 5 to 10 µM | 5 to 8 µM | – | – | – | – | CC50 at 48 h ([1]; host cardiomyoblasts, read-out: C2C12 Cytotoxicity CC50): > 10 µM; CC50 (human dermal fibroblasts; human dermal fibroblasts, read-out: Human Cell Cytotoxicity CC50): > 100 µM
2 | C[n+]1ccccc1/C=C/[C@H](Cc1ccccc1)NC(=O)[C@H](Cc1ccccc1)NC(=O)OCc1ccccc1.[I-] [Compound 12, 2-((S,E)-3-((S)-2-(((Benzyloxy)carbonyl)amino)-3-phenylpropanamido)-4-phenylbut-1-en-1-yl)-1-methylpyridin-1-ium Iodide] | 0.617 ± 0.033 M⁻¹ s⁻¹ | 9.9 ± 0.5 µM | 5 to 8 µM | 8 fold | – | – | – | CC50 at 48 h [1]: > 10 µM; solubility ([4]; in 10% DMSO): ≥ 50 µM; CC50 (human dermal fibroblasts; human, 48 h): > 100 µM; Selectivity Index CC50/EC50 ([3]; CC50 human dermal fibroblasts / EC50 infected cardiomyoblasts): >10
3 | C[n+]1ccccc1/C=C/[C@H](CCc1ccccc1)NC(=O)[C@H](Cc1ccccc1)NC(=O)OCc1ccccc1 [Compound 15, 2-((S,E)-3-((S)-2-(((Benzyloxy)carbonyl)amino)-3-phenylpropanamido)-5-phenylpent-1-en-1-yl)-1-methylpyridin-1-ium] | 0.9 ± 0.067 M⁻¹ s⁻¹ | 5.4 ± 0.9 µM | – | 8 fold | > 10 µM | – | – | solubility [4]: ≥ 50 µM; CC50 (human dermal fibroblasts): > 100 µM
4 | O=C(N[C@@H](Cc1ccccc1)C(=O)N[C@H]1Cc2ccccc2OC1O)OCc1ccccc1 (stereo partly drawn) [Compound 30] | – | 5 to 8 µM and 3 µM and 3 to 5.7 µM | – | – | > 10 µM | > 10 µM | 5 µM and 2.5 to 7.5 µM | Ki* 3CLpro (SARS-CoV-2 3CL protease): not an inhibitor of 3CL protease
5 | CN1CCN(C(=O)NC(Cc2ccccc2)C(=O)NC2Cc3ccccc3OC2O)CC1 (stereo not drawn) [Compound 36] | – | 29 µM and ~30 µM | – | – | – | > 10 µM | 7.5 µM | half-life [7]: short half-life; EC50 [8]: 0.5 to 29 µM; free aldehyde by phenylhydrazine treatment [9]: no free aldehyde could be detected; also recorded: remained intact after 2 hours
